# In the NIST ThermoML archive (doi:10.1021/acs.jced.8b00554):
# Where “and” joins values, the source holds several entries; their conditions need not be identical. Equal entries are not always repeated. Numbers after ± are expanded uncertainties.
# Experiment: xn = mol fraction of the nth substance listed
# Settings: Liquid, Vibrating tube method
smiles,measurement,setting,value
CCCCCCCCC [nonane] + CCCO,mass density,"313.15 K, 18020 kPa, x2 = 0.4272",731.02 ± 4.7 kg/m3
same,mass density,"313.15 K, 19000 kPa, x2 = 0.2315",725.04 ± 4.7 kg/m3
same,mass density,"313.15 K, 19000 kPa, x2 = 0.3229",705.41 ± 4.5 kg/m3
same,mass density,"313.15 K, 19000 kPa, x2 = 0.7021",757.45 ± 4.9 kg/m3
same,mass density,"313.15 K, 19000 kPa, x2 = 0.8941",782.35 ± 5 kg/m3
same,mass density,"313.15 K, 19010 kPa, x2 = 0.1231",682.1 ± 4.5 kg/m3 and 720.5 ± 4.7 kg/m3
same,mass density,"313.15 K, 19010 kPa, x2 = 0.2315",685.8 ± 4.4 kg/m3
same,mass density,"313.15 K, 19010 kPa, x2 = 0.4272",732.06 ± 4.7 kg/m3
same,mass density,"313.15 K, 19020 kPa, x2 = 0.3229",729.37 ± 4.7 kg/m3
same,mass density,"313.15 K, 19020 kPa, x2 = 0.4272",735.24 ± 4.7 kg/m3
same,mass density,"313.15 K, 20000 kPa, x2 = 0.1231",721.22 ± 4.9 kg/m3
same,mass density,"313.15 K, 20010 kPa, x2 = 0.1231",683.05 ± 4.4 kg/m3
same,mass density,"313.15 K, 20010 kPa, x2 = 0.2315",686.85 ± 4.4 kg/m3
same,mass density,"313.15 K, 20010 kPa, x2 = 0.4272",736 ± 4.7 kg/m3
same,mass density,"313.15 K, 20010 kPa, x2 = 0.7021",758.2 ± 4.9 kg/m3
same,mass density,"313.15 K, 20010 kPa, x2 = 0.8941",783.1 ± 5 kg/m3
same,mass density,"313.15 K, 20020 kPa, x2 = 0.2315",725.78 ± 4.7 kg/m3
same,mass density,"313.15 K, 20020 kPa, x2 = 0.3229",706.48 ± 4.6 kg/m3 and 730.09 ± 4.7 kg/m3
same,mass density,"313.15 K, 20020 kPa, x2 = 0.4272",733.04 ± 4.7 kg/m3
same,mass density,"323.15 K, 100 kPa, x2 = 0.1231",696.08 ± 4.5 kg/m3
same,mass density,"323.15 K, 100 kPa, x2 = 0.2315",700.11 ± 4.5 kg/m3
same,mass density,"323.15 K, 100 kPa, x2 = 0.3229",704.16 ± 4.5 kg/m3
same,mass density,"323.15 K, 100 kPa, x2 = 0.4272",709.94 ± 4.5 kg/m3
same,mass density,"323.15 K, 100 kPa, x2 = 0.7021",732.13 ± 4.7 kg/m3
same,mass density,"323.15 K, 100 kPa, x2 = 0.8941",757.59 ± 4.8 kg/m3
same,mass density,"323.15 K, 1000 kPa, x2 = 0.7021",732.62 ± 4.7 kg/m3
same,mass density,"323.15 K, 1010 kPa, x2 = 0.1231",696.28 ± 4.5 kg/m3
same,mass density,"323.15 K, 1010 kPa, x2 = 0.2315",700.63 ± 4.5 kg/m3
same,mass density,"323.15 K, 1010 kPa, x2 = 0.3229",704.67 ± 4.5 kg/m3
same,mass density,"323.15 K, 1010 kPa, x2 = 0.4272",710.4 ± 4.5 kg/m3
same,mass density,"323.15 K, 1010 kPa, x2 = 0.8941",758.12 ± 4.8 kg/m3
same,mass density,"323.15 K, 2000 kPa, x2 = 0.1231",697.28 ± 4.5 kg/m3
same,mass density,"323.15 K, 2000 kPa, x2 = 0.8941",759.05 ± 4.9 kg/m3
same,mass density,"323.15 K, 2010 kPa, x2 = 0.2315",701.62 ± 4.5 kg/m3
same,mass density,"323.15 K, 2010 kPa, x2 = 0.3229",705.65 ± 4.5 kg/m3
same,mass density,"323.15 K, 2010 kPa, x2 = 0.4272",711.37 ± 4.6 kg/m3
same,mass density,"323.15 K, 2010 kPa, x2 = 0.7021",733.6 ± 4.7 kg/m3
same,mass density,"323.15 K, 3010 kPa, x2 = 0.2315",702.6 ± 4.5 kg/m3
same,mass density,"323.15 K, 3010 kPa, x2 = 0.3229",706.63 ± 4.5 kg/m3
same,mass density,"323.15 K, 3010 kPa, x2 = 0.4272",712.36 ± 4.6 kg/m3
same,mass density,"323.15 K, 3010 kPa, x2 = 0.8941",760 ± 4.9 kg/m3
same,mass density,"323.15 K, 3020 kPa, x2 = 0.1231",698.25 ± 4.5 kg/m3
same,mass density,"323.15 K, 3020 kPa, x2 = 0.7021",734.56 ± 4.7 kg/m3
same,mass density,"323.15 K, 4000 kPa, x2 = 0.2315",703.57 ± 4.5 kg/m3
same,mass density,"323.15 K, 4000 kPa, x2 = 0.4272",713.31 ± 4.6 kg/m3
same,mass density,"323.15 K, 4000 kPa, x2 = 0.8941",760.92 ± 4.9 kg/m3
same,mass density,"323.15 K, 4010 kPa, x2 = 0.1231",699.22 ± 4.5 kg/m3
same,mass density,"323.15 K, 4010 kPa, x2 = 0.3229",707.6 ± 4.5 kg/m3
same,mass density,"323.15 K, 4020 kPa, x2 = 0.7021",735.53 ± 4.7 kg/m3
same,mass density,"323.15 K, 5010 kPa, x2 = 0.1231",700.18 ± 4.5 kg/m3
same,mass density,"323.15 K, 5010 kPa, x2 = 0.2315",704.52 ± 4.5 kg/m3
same,mass density,"323.15 K, 5010 kPa, x2 = 0.4272",714.28 ± 4.6 kg/m3
same,mass density,"323.15 K, 5010 kPa, x2 = 0.7021",736.47 ± 4.7 kg/m3
same,mass density,"323.15 K, 5010 kPa, x2 = 0.8941",761.84 ± 4.9 kg/m3
same,mass density,"323.15 K, 5020 kPa, x2 = 0.3229",708.55 ± 4.5 kg/m3
same,mass density,"323.15 K, 6010 kPa, x2 = 0.1231",701.13 ± 4.5 kg/m3
same,mass density,"323.15 K, 6010 kPa, x2 = 0.2315",705.46 ± 4.5 kg/m3
same,mass density,"323.15 K, 6010 kPa, x2 = 0.3229",709.51 ± 4.5 kg/m3
same,mass density,"323.15 K, 6010 kPa, x2 = 0.4272",715.23 ± 4.6 kg/m3
same,mass density,"323.15 K, 6010 kPa, x2 = 0.7021",737.41 ± 4.7 kg/m3
same,mass density,"323.15 K, 6010 kPa, x2 = 0.8941",762.78 ± 4.9 kg/m3
same,mass density,"323.15 K, 7000 kPa, x2 = 0.8941",763.69 ± 4.9 kg/m3
same,mass density,"323.15 K, 7010 kPa, x2 = 0.3229",710.46 ± 4.5 kg/m3
same,mass density,"323.15 K, 7020 kPa, x2 = 0.1231",702.05 ± 4.5 kg/m3
same,mass density,"323.15 K, 7020 kPa, x2 = 0.2315",706.4 ± 4.5 kg/m3
same,mass density,"323.15 K, 7020 kPa, x2 = 0.4272",716.18 ± 4.6 kg/m3
same,mass density,"323.15 K, 7020 kPa, x2 = 0.7021",738.36 ± 4.7 kg/m3
same,mass density,"323.15 K, 8010 kPa, x2 = 0.3229",711.38 ± 4.6 kg/m3
same,mass density,"323.15 K, 8010 kPa, x2 = 0.4272",717.13 ± 4.6 kg/m3
same,mass density,"323.15 K, 8010 kPa, x2 = 0.7021",739.3 ± 4.7 kg/m3
same,mass density,"323.15 K, 8010 kPa, x2 = 0.8941",764.6 ± 4.9 kg/m3
same,mass density,"323.15 K, 8020 kPa, x2 = 0.1231",702.98 ± 4.5 kg/m3
same,mass density,"323.15 K, 8020 kPa, x2 = 0.2315",707.34 ± 4.5 kg/m3
same,mass density,"323.15 K, 9000 kPa, x2 = 0.2315",708.26 ± 4.5 kg/m3
same,mass density,"323.15 K, 9000 kPa, x2 = 0.7021",740.23 ± 4.7 kg/m3
same,mass density,"323.15 K, 9010 kPa, x2 = 0.1231",703.89 ± 4.5 kg/m3
same,mass density,"323.15 K, 9010 kPa, x2 = 0.4272",718.05 ± 4.6 kg/m3
same,mass density,"323.15 K, 9020 kPa, x2 = 0.3229",712.32 ± 4.6 kg/m3
same,mass density,"323.15 K, 9020 kPa, x2 = 0.8941",765.49 ± 4.9 kg/m3
same,mass density,"323.15 K, 10000 kPa, x2 = 0.1231",704.81 ± 4.5 kg/m3
same,mass density,"323.15 K, 10000 kPa, x2 = 0.8941",766.39 ± 4.9 kg/m3
same,mass density,"323.15 K, 10010 kPa, x2 = 0.3229",713.24 ± 4.6 kg/m3
same,mass density,"323.15 K, 10010 kPa, x2 = 0.4272",718.99 ± 4.6 kg/m3
same,mass density,"323.15 K, 10010 kPa, x2 = 0.7021",741.14 ± 4.8 kg/m3
same,mass density,"323.15 K, 10020 kPa, x2 = 0.2315",709.17 ± 4.5 kg/m3
same,mass density,"323.15 K, 11000 kPa, x2 = 0.3229",714.15 ± 4.6 kg/m3
same,mass density,"323.15 K, 11000 kPa, x2 = 0.8941",767.27 ± 4.9 kg/m3
same,mass density,"323.15 K, 11010 kPa, x2 = 0.1231",705.72 ± 4.5 kg/m3
same,mass density,"323.15 K, 11010 kPa, x2 = 0.2315",710.07 ± 4.5 kg/m3
same,mass density,"323.15 K, 11010 kPa, x2 = 0.4272",719.89 ± 4.6 kg/m3
same,mass density,"323.15 K, 11010 kPa, x2 = 0.7021",742.04 ± 4.8 kg/m3
same,mass density,"323.15 K, 12010 kPa, x2 = 0.3229",715.05 ± 4.6 kg/m3
same,mass density,"323.15 K, 12010 kPa, x2 = 0.7021",742.93 ± 4.8 kg/m3
